Test results taken from PMC9455983 (International Journal of Molecular Sciences, 2022).
Like-named read-outs stand apart in the source and are kept apart here.

Assays:
[1] = target: T1, mu-opioid receptor (MOR) (Rattus norvegicus, UniProt P33535); test: MOR radioligand competition binding assay ([3H]-DAMGO); conditions: Mu screening results
T1 construct: Rat cortices were homogenized using 50 mM Tris, pH 7.4, and centrifuged at 16,500 rpm for 10 min; from tissue; host or cells: rat cortex membranes
Description: MOR binding assay: Rat cortices were homogenized using 50 mM Tris, pH 7.4, and centrifuged at 16,500 rpm for 10 min. The pellets were resuspended in fresh buffer and incubated at 37 °C for 30 min. Following incubation, the suspensions were centrifuged as before, the resulting pellets were resuspended in 100 volumes of 50 mM Tris, pH 7.4 plus 2 mg/mL bovine serum and the suspensions combined. Each assay tube contained 0.5 mL of membrane suspension, 2 nM [^3H]-DAMGO, and 0.02 mg/mL mixture in a total volume of 0.65 mL [13, 45, 53, 55].
(§1) All three binding assays were terminated by filtration through GF/B filters, soaked in 5 mg/mL bovine serum albumin, 50 mM Tris, pH 7.4, on a Tomtec Mach II Harvester 96. The filters were subsequently washed with 6 mL of assay buffer. Bound radioactivity was counted on a Wallac Betaplate Liquid Scintillation Counter. Experiments were conducted using two replicates and repeated twice. Values in Scheme 2 represent the mean ± SD of two experiments with two replicates in each test.

[2] = target: T2, kappa-opioid receptor (KOR) (Cavia porcellus, UniProt P41144); test: KOR radioligand competition binding assay ([3H]U69,593); parameters: species or system guinea pig; conditions: Kappa screening results
T2 construct: Guinea pig cortices and cerebella were homogenized using 50 mM Tris, pH 7.4; from tissue; host or cells: guinea pig cortex and cerebellum membranes
Description: KOR binding assay: Guinea pig cortices and cerebella were homogenized using 50 mM Tris, pH 7.4, 10 mM MgCl2-6H2O, […] centrifuged and incubated as above. Each assay tube contained 2 nM [^3H]U69,593. Assay tubes were incubated for 2 h at 25 °C. Unlabeled U50,488 was used as a competitor to generate a standard curve and determine nonspecific binding.
as §1

[3] = target: T3, delta-opioid receptor (DOR) (Rattus norvegicus, UniProt P33533); test: DOR radioligand competition binding assay ([3H]-DPDPE); conditions: Delta screening results
T3 construct: Rat cortices were homogenized using 50 mM Tris, pH 7.4, 10 mM MgCl2-6H2O, 200 µM PMSF; from tissue; host or cells: rat cortex membranes
Description: DOR binding assay: Rat cortices were homogenized using 50 mM Tris, pH 7.4, 10 mM MgCl2-6H2O, 200 µM PMSF, centrifuged and incubated as above. Each assay tube contained 2 nM [^3H]-DPDPE. Assay tubes were incubated for 2.5 h at 25 °C. Unlabeled DPDPE was used as a competitor to generate a standard curve and determine nonspecific binding.
as §1

[4] = experiment 1, unit inferred, read-out: Ki (Exp 1)
[5] = experiment 2, unit inferred, read-out: Ki (Exp 2)
[6] = mean of Exp 1 and Exp 2, unit inferred, read-out: MEAN (Ki)
[7] = mean of two experiments, read-out: Ki
[8] = first Ki column, unit not printed (apparently M), read-out: Ki (first column)
[9] = mean of both Ki, unit inferred, read-out: MEAN (Ki)
[10] = second Ki column, unit not printed (apparently M), read-out: Ki (second column)

| Compound | Ki [1, 4] [µM] | Ki [1, 5] [µM] | Ki [1, 6] [µM] | Ki [1, 7] [µM] | Ki [2, 4] [µM] | Ki [2, 5] [µM] | Ki [2, 6] [µM] | Ki [2, 7] [µM] | Ki [3, 8] [µM] | Ki [3, 9] [µM] | Ki [3, 7] [µM] | Ki [3, 10] [µM] |
| --- | --- | --- | --- | --- | --- | --- | --- | --- | --- | --- | --- | --- |
| Cc1cc(O)cc(C)c1C[C@@H](CN1C(=N)NC[C@@H]1Cc1ccc(O)cc1)N1C[C@H](Cc2ccccc2)NC1=N [1968-29] | 0.117 | 0.114 | 0.116 | 0.116 | 1.45 | 1.45 | 1.45 | 1.45 | 0.967 | 0.836 | 0.836 | 0.705 |
| Cc1cc(O)cc(C)c1C[C@@H](CN1C(=N)NC[C@@H]1Cc1ccc(O)cc1)N1C[C@H](Cc2ccc(O)cc2)NC1=N [1968-30] | 0.0988 | 0.127 | 0.113 | 0.113 | 1.73 | 1.76 | 1.74 | 1.74 | 1.34 | 1.2 | 1.2 | 1.07 |
| Cc1cc(O)cc(C)c1C[C@@H](CN1C(=N)NC[C@@H]1Cc1ccc(O)cc1)N1C[C@H](CC(C)C)NC1=N [1968-31] | 0.295 | 0.298 | 0.297 | 0.297 | 2.58 | 2.08 | 2.33 | 2.33 | 2.2 | 1.94 | 1.94 | 1.68 |
| Cc1cc(O)cc(C)c1C[C@H]1CN([C@@H](Cc2c(C)cc(O)cc2C)CN2C(=N)NC[C@@H]2Cc2ccc(O)cc2)C(=N)N1 [1968-32] | 0.106 | 0.134 | 0.12 | 0.12 | 1.76 | 1.48 | 1.62 | 1.62 | 0.469 | 0.488 | 0.488 | 0.507 |
| C[C@H]1CNC(=N)N1C[C@H](Cc1ccccc1)N1C[C@H](Cc2ccccc2)NC1=N [1968-33] | 4.17 | 2.54 | 3.35 | 3.35 | 16.3 | 14.1 | 15.2 | 15.2 | 16.6 | 11.3 | 11.3 | 5.95 |
| C[C@H]1CNC(=N)N1C[C@H](Cc1ccccc1)N1C[C@H](Cc2ccc(O)cc2)NC1=N [1968-34] | 1.48 | 1.07 | 1.28 | 1.28 | 6.52 | 9.15 | 7.83 | 7.83 | 5.14 | 6.65 | 6.65 | 8.16 |
| Cc1cc(O)cc(C)c1C[C@H]1CN([C@@H](Cc2ccccc2)CN2C(=N)NC[C@@H]2C)C(=N)N1 [1968-36] | 0.167 | 0.124 | 0.146 | 0.146 | 1.03 | 1.32 | 1.17 | 1.17 | 3.71 | 3.55 | 3.55 | 3.4 |
| C[C@H]1CNC(=N)N1C[C@H](Cc1ccc(O)cc1)N1C[C@H](Cc2ccccc2)NC1=N [1968-37] | 0.749 | 0.588 | 0.669 | 0.669 | 3.45 | 3.88 | 3.66 | 3.66 | 3.43 | 3.61 | 3.61 | 3.8 |
| C[C@H]1CNC(=N)N1C[C@H](Cc1ccc(O)cc1)N1C[C@H](Cc2ccc(O)cc2)NC1=N [1968-38] | 0.174 | 0.195 | 0.184 | 0.184 | 1.69 | 1.96 | 1.82 | 1.82 | 4.27 | 3.8 | 3.8 | 3.33 |
| CC(C)C[C@H]1CN([C@@H](Cc2ccc(O)cc2)CN2C(=N)NC[C@@H]2C)C(=N)N1 [1968-39] | 1.24 | 1.77 | 1.5 | 1.5 | 4.09 | 7.72 | 5.9 | 5.9 | 4.15 | 3.83 | 3.83 | 3.51 |
| Cc1cc(O)cc(C)c1C[C@H]1CN([C@@H](Cc2ccc(O)cc2)CN2C(=N)NC[C@@H]2C)C(=N)N1 [1968-40] | 0.0364 | 0.0488 | 0.0426 | 0.043 | 0.235 | 0.263 | 0.249 | 0.249 | 1.52 | 1.42 | 1.42 | 1.32 |
| CC(C)C[C@@H](CN1C(=N)NC[C@@H]1C)N1C[C@H](Cc2ccccc2)NC1=N [1968-41] | 5.62 | 7.39 | 6.51 | 6.51 | 23.9 | 22 | 23 | 22.9 | 7.31 | – | – | – |
| CC(C)C[C@@H](CN1C(=N)NC[C@@H]1C)N1C[C@H](Cc2ccc(O)cc2)NC1=N [1968-42] | 2.13 | 2.47 | 2.3 | 2.3 | 12.3 | 12.3 | 12.3 | 12.3 | 20.6 | 55.7 | 55.7 | 90.8 |
| CC(C)C[C@H]1CN([C@@H](CC(C)C)CN2C(=N)NC[C@@H]2C)C(=N)N1 [1968-43] | 7.81 | 10.7 | 9.26 | 9.26 | 36 | 53 | 44.5 | 44.5 | 9.25 | 7.97 | 7.97 | 6.69 |
| Cc1cc(O)cc(C)c1C[C@H]1CN([C@@H](CC(C)C)CN2C(=N)NC[C@@H]2C)C(=N)N1 [1968-44] | 0.157 | 0.244 | 0.2 | 0.2 | 1.83 | 1.42 | 1.63 | 1.63 | 10.2 | 7.63 | 7.63 | 5.06 |
| Cc1cc(O)cc(C)c1C[C@H]1CNC(=N)N1C[C@H](Cc1ccccc1)N1C[C@H](Cc2ccccc2)NC1=N [1968-49] | 0.0534 | 0.0847 | 0.0691 | 0.069 | 1.23 | 1.21 | 1.22 | 1.22 | 0.615 | 0.543 | 0.543 | 0.472 |
| Cc1cc(O)cc(C)c1C[C@H]1CNC(=N)N1C[C@H](Cc1ccccc1)N1C[C@H](Cc2ccc(O)cc2)NC1=N [1968-50] | 0.0616 | 0.114 | 0.0878 | 0.088 | 1.9 | 1.74 | 1.82 | 1.82 | 1.1 | 0.896 | 0.896 | 0.69 |
| Cc1cc(O)cc(C)c1C[C@H]1CNC(=N)N1C[C@H](Cc1ccccc1)N1C[C@H](CC(C)C)NC1=N [1968-51] | 0.126 | 0.162 | 0.144 | 0.144 | 0.872 | 0.639 | 0.755 | 0.755 | 2.58 | 2.55 | 2.56 | 2.53 |
| Cc1cc(O)cc(C)c1C[C@H]1CN([C@@H](Cc2ccccc2)CN2C(=N)NC[C@@H]2Cc2c(C)cc(O)cc2C)C(=N)N1 [1968-52] | 0.0834 | 0.102 | 0.0928 | 0.093 | 1.2 | 1.24 | 1.22 | 1.22 | 0.582 | 0.551 | 0.551 | 0.521 |
